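Exposure lasted 48 hours, with cells grown in 96-well plates and compounds tested at five concentrations. Abbreviation: GI50, concentration required for 50% inhibition of growth. TGI denotes the concentration required for complete inhibition of growth.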
test system: MDA-MB-435; assay: growth of human tumour cells (NCI), 48 h

| SMILES | GI50 [µM] | TGI [µM] |
| --- | --- | --- |
| Cc1ccc(N(CSc2ccc(Cl)cc2)CSc2ccc(Cl)cc2)cc1 | 0.927 | 9.38 |
| Cc1[nH][nH]c(=O)c1C=Nc1ccc(-c2nc3ccccc3[nH]2)cc1 | 16.8 | 33.7 |
| O=c1c(-c2ccccc2)c(SCCCN2CCN(c3cccc(Cl)c3)CC2)n(-c2ccccc2)c(=S)n1-c1ccccc1 |  | 42.4 |

test system: SK-MEL-2 melanoma; assay: growth of human tumour cells (NCI), 48 h

| SMILES | GI50 [µM] | TGI [µM] |
| --- | --- | --- |
| CCN1C(=O)N(CC)C2C1NC(=S)N2/N=C/C=C/c1cccs1 (stereo unspecified) | 0.529 | > 100 |
| Cc1ccc(N(CSc2ccc(Cl)cc2)CSc2ccc(Cl)cc2)cc1 | 3.76 | 25 |
| Cc1[nH][nH]c(=O)c1C=Nc1ccc(-c2nc3ccccc3[nH]2)cc1 | 23.3 | 48 |
| O=c1c(-c2ccccc2)c(SCCCN2CCN(c3cccc(Cl)c3)CC2)n(-c2ccccc2)c(=S)n1-c1ccccc1 |  | > 100 |

test system: SF-268 CNS; assay: growth of human tumour cells (NCI), 48 h

| SMILES | GI50 [µM] | TGI [µM] |
| --- | --- | --- |
| CCN1C(=O)N(CC)C2C1NC(=S)N2/N=C/C=C/c1cccs1 (stereo unspecified) | 1.47 | > 100 |
| Cc1ccc(N(CSc2ccc(Cl)cc2)CSc2ccc(Cl)cc2)cc1 | 0.909 | 12.4 |
| Cc1[nH][nH]c(=O)c1C=Nc1ccc(-c2nc3ccccc3[nH]2)cc1 | 14.4 | 51.1 |

test system: HCC-2998 colon; assay: growth of human tumour cells (NCI), 48 h

| SMILES | GI50 [µM] | TGI [µM] |
| --- | --- | --- |
| CCN1C(=O)N(CC)C2C1NC(=S)N2/N=C/C=C/c1cccs1 (stereo unspecified) | 0.709 | > 100 |
| Cc1ccc(N(CSc2ccc(Cl)cc2)CSc2ccc(Cl)cc2)cc1 | 2.57 | 11.7 |
| O=c1c(-c2ccccc2)c(SCCCN2CCN(c3cccc(Cl)c3)CC2)n(-c2ccccc2)c(=S)n1-c1ccccc1 |  | > 100 |

test system: NCI-H226 lung; assay: growth of human tumour cells (NCI), 48 h

| SMILES | GI50 [µM] | TGI [µM] |
| --- | --- | --- |
| CCN1C(=O)N(CC)C2C1NC(=S)N2/N=C/C=C/c1cccs1 (stereo unspecified) | 2.06 | > 28.3 |
| Cc1ccc(N(CSc2ccc(Cl)cc2)CSc2ccc(Cl)cc2)cc1 | 1.09 | 2.45 |
| Cc1[nH][nH]c(=O)c1C=Nc1ccc(-c2nc3ccccc3[nH]2)cc1 | 33.7 | > 100 |
| O=c1c(-c2ccccc2)c(SCCCN2CCN(c3cccc(Cl)c3)CC2)n(-c2ccccc2)c(=S)n1-c1ccccc1 |  | > 100 |

test system: T-47D breast; assay: growth of human tumour cells (NCI), 48 h

| SMILES | GI50 [µM] | TGI [µM] |
| --- | --- | --- |
| CCN1C(=O)N(CC)C2C1NC(=S)N2/N=C/C=C/c1cccs1 (stereo unspecified) | 0.428 | > 100 |
| Cc1ccc(N(CSc2ccc(Cl)cc2)CSc2ccc(Cl)cc2)cc1 | 2.92 | 18.3 |

test system: SK-OV-3 ovarian; assay: growth of human tumour cells (NCI), 48 h

| SMILES | GI50 [µM] | TGI [µM] |
| --- | --- | --- |
| CCN1C(=O)N(CC)C2C1NC(=S)N2/N=C/C=C/c1cccs1 (stereo unspecified) | 0.339 | > 100 |
| Cc1ccc(N(CSc2ccc(Cl)cc2)CSc2ccc(Cl)cc2)cc1 | 3.29 | 19.3 |
| Cc1[nH][nH]c(=O)c1C=Nc1ccc(-c2nc3ccccc3[nH]2)cc1 | 41.9 | > 100 |
| O=c1c(-c2ccccc2)c(SCCCN2CCN(c3cccc(Cl)c3)CC2)n(-c2ccccc2)c(=S)n1-c1ccccc1 |  | > 100 |

test system: MCF7 breast; assay: growth of human tumour cells (NCI), 48 h

| SMILES | GI50 [µM] | TGI [µM] |
| --- | --- | --- |
| CCN1C(=O)N(CC)C2C1NC(=S)N2/N=C/C=C/c1cccs1 (stereo unspecified) | 0.26 | > 100 |
| Cc1ccc(N(CSc2ccc(Cl)cc2)CSc2ccc(Cl)cc2)cc1 | 2.25 | 12.1 |
| Cc1[nH][nH]c(=O)c1C=Nc1ccc(-c2nc3ccccc3[nH]2)cc1 |  | 0.612 |
| O=c1c(-c2ccccc2)c(SCCCN2CCN(c3cccc(Cl)c3)CC2)n(-c2ccccc2)c(=S)n1-c1ccccc1 |  | > 100 |

test system: SW-620 colon; assay: growth of human tumour cells (NCI), 48 h

| SMILES | GI50 [µM] | TGI [µM] |
| --- | --- | --- |
| CCN1C(=O)N(CC)C2C1NC(=S)N2/N=C/C=C/c1cccs1 (stereo unspecified) | 0.355 | > 100 |
| Cc1ccc(N(CSc2ccc(Cl)cc2)CSc2ccc(Cl)cc2)cc1 | 2.22 | 11.5 |
| Cc1[nH][nH]c(=O)c1C=Nc1ccc(-c2nc3ccccc3[nH]2)cc1 | 25.6 | 55.7 |
| O=c1c(-c2ccccc2)c(SCCCN2CCN(c3cccc(Cl)c3)CC2)n(-c2ccccc2)c(=S)n1-c1ccccc1 |  | > 100 |

test system: UACC-257 melanoma; assay: growth of human tumour cells (NCI), 48 h

| SMILES | TGI [µM] | GI50 [µM] |
| --- | --- | --- |
| CCN1C(=O)N(CC)C2C1NC(=S)N2/N=C/C=C/c1cccs1 (stereo unspecified) | > 100 |  |
| Cc1ccc(N(CSc2ccc(Cl)cc2)CSc2ccc(Cl)cc2)cc1 | > 100 | 3.72 |
| Cc1[nH][nH]c(=O)c1C=Nc1ccc(-c2nc3ccccc3[nH]2)cc1 | 42.1 | 19.9 |
| O=c1c(-c2ccccc2)c(SCCCN2CCN(c3cccc(Cl)c3)CC2)n(-c2ccccc2)c(=S)n1-c1ccccc1 | > 100 |  |

test system: DU-145 prostate; assay: growth of human tumour cells (NCI), 48 h

| SMILES | GI50 [µM] | TGI [µM] |
| --- | --- | --- |
| CCN1C(=O)N(CC)C2C1NC(=S)N2/N=C/C=C/c1cccs1 (stereo unspecified) | 0.341 | > 100 |
| Cc1ccc(N(CSc2ccc(Cl)cc2)CSc2ccc(Cl)cc2)cc1 | 2.57 | 23 |
| Cc1[nH][nH]c(=O)c1C=Nc1ccc(-c2nc3ccccc3[nH]2)cc1 | 34.8 | > 100 |
| O=c1c(-c2ccccc2)c(SCCCN2CCN(c3cccc(Cl)c3)CC2)n(-c2ccccc2)c(=S)n1-c1ccccc1 |  | > 100 |

test system: EKVX NSCLC; assay: growth of human tumour cells (NCI), 48 h

| SMILES | GI50 [µM] | TGI [µM] |
| --- | --- | --- |
| CCN1C(=O)N(CC)C2C1NC(=S)N2/N=C/C=C/c1cccs1 (stereo unspecified) | 0.464 | > 100 |
| Cc1ccc(N(CSc2ccc(Cl)cc2)CSc2ccc(Cl)cc2)cc1 | 0.542 | 26 |
| Cc1[nH][nH]c(=O)c1C=Nc1ccc(-c2nc3ccccc3[nH]2)cc1 | 19.8 | 51.1 |
| O=c1c(-c2ccccc2)c(SCCCN2CCN(c3cccc(Cl)c3)CC2)n(-c2ccccc2)c(=S)n1-c1ccccc1 |  | > 100 |

test system: RPMI-8226 leukemia; assay: growth of human tumour cells (NCI), 48 h

| SMILES | GI50 [µM] | TGI [µM] |
| --- | --- | --- |
| CCN1C(=O)N(CC)C2C1NC(=S)N2/N=C/C=C/c1cccs1 (stereo unspecified) | 0.413 | > 38.9 |
| Cc1ccc(N(CSc2ccc(Cl)cc2)CSc2ccc(Cl)cc2)cc1 | 2.13 | 6.46 |
| Cc1[nH][nH]c(=O)c1C=Nc1ccc(-c2nc3ccccc3[nH]2)cc1 | 38.2 | > 100 |
| O=c1c(-c2ccccc2)c(SCCCN2CCN(c3cccc(Cl)c3)CC2)n(-c2ccccc2)c(=S)n1-c1ccccc1 |  | > 100 |

test system: SNB-19 CNS; assay: growth of human tumour cells (NCI), 48 h

| SMILES | GI50 [µM] | TGI [µM] |
| --- | --- | --- |
| CCN1C(=O)N(CC)C2C1NC(=S)N2/N=C/C=C/c1cccs1 (stereo unspecified) | 0.508 | > 100 |
| Cc1ccc(N(CSc2ccc(Cl)cc2)CSc2ccc(Cl)cc2)cc1 | 1.48 | 19.8 |
| Cc1[nH][nH]c(=O)c1C=Nc1ccc(-c2nc3ccccc3[nH]2)cc1 | 22.6 | 57.3 |

test system: KM12 colon; assay: growth of human tumour cells (NCI), 48 h

| SMILES | GI50 [µM] | TGI [µM] |
| --- | --- | --- |
| CCN1C(=O)N(CC)C2C1NC(=S)N2/N=C/C=C/c1cccs1 (stereo unspecified) | 0.312 | > 100 |
| Cc1ccc(N(CSc2ccc(Cl)cc2)CSc2ccc(Cl)cc2)cc1 | 0.51 | 12.5 |
